Broadly, the IC50 is the point on the concentration scale where inhibition reaches its midpoint.

In assay [1] the target is T1, full length PDK1 (Homo sapiens, UniProt O15530).
T1 construct: Full-length human 3-Phosphoinositide Dependent protein Kinase-1; made in house; host or cells: baculovirus / Sf9 insect cells
T1 sequence (O15530 1-556): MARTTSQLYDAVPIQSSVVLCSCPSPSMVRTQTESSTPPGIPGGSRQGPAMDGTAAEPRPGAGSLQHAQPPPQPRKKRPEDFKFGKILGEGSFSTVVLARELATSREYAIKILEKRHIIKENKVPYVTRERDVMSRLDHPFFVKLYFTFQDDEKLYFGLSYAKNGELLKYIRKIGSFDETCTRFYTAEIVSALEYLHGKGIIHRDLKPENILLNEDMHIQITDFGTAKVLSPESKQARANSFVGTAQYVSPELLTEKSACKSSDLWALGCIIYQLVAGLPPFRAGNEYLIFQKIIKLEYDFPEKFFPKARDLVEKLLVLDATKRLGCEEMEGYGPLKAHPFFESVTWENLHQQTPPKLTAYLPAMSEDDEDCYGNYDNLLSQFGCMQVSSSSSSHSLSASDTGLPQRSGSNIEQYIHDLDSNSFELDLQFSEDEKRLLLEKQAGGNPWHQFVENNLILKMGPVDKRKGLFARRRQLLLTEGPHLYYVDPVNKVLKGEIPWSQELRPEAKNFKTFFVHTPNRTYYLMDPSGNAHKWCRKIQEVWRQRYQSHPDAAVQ
Briefly: PDK1 enzyme assays (substrate phosphorylation: LEADseeker scintillation proximity, TR-FRET, PDKtide). In kind it is biochemical. The conditions noted are these: in at least one experimental run, read-out: IC50 against full length PDK1. As to the method: Substrate phosphorylation assays are carried out as follows:
Biotinylated-hAKT1: Human AKT1 (containing amino acid residues 136-480, as annotated by National Center for Biotechnology Information (NCBI) accession number AAL55732.1, with a MetLysLysHis6 N-terminal addition) is purified to >90% from lysate of baculovirus expression by Nickel Chelating ProBond resin (InVitrogen), Q-Sepharose Fast Flow, and Superdex 200 size exclusion chromatography. Biotinylation is achieved using EZ-Link Sulfo-NHS-LC Biotin (Pierce). Samples, in 25 mM HEPES, pH 7.5, 200 mM NaCl, 2 mM DTT, and 30% glycerol are stored at −80C until use.
(§1) Full-length human 3-Phosphoinositide Dependent protein Kinase-1 (hPDK1; National Center for Biotechnology Information (NCBI) accession number AAH39158.1 with a MetGlyHis6 N-terminal addition) is purified from baculovirus expression in Sf9 cells. Purity of approximately 80% is achieved by the use of chelation chromatography (Ni-NTA Superflow) and desalting columns. Samples, in 25 mM HEPES, 150 mM NaCl, 2.5 mM DTT, 0.05% Triton, 30% glycerol, pH 8.0, are stored at −80° C. until use.
The 39 amino acid biotinylated-PDKtide peptide Seq. ID No. 1: (Biotin-Ahx-[…]) was custom synthesized by 21st Century Biochemicals. […] The concentration was confirmed by quantitative amino acid analysis.
Scintillation Proximity (LEADseeker) Kinase Assay of Purified hPDK1:
Assays are performed in 384-well microtiter plates (Greiner, Catalog No. 784075). The reaction volume (10 μl) contains, in final concentrations, 25 mM MOPS (pH 7.5), 10 mM MgCl2, 50 mM KCl, 0.1 mg/ml BSA, 1 μM ATP, 3 uCi/ml ^33PγATP, 5 mM DTT, 1 mM CHAPS or 0.05% Tween20, 0.35 μM AKT1 biotinylated protein, and 10 nM hPDK1.
Compounds, titrated in DMSO, are evaluated at eleven concentrations ranging from 50 μM to 2 μM. […] Reactions are stopped after 3 hours at room temperature by the addition of 50 mM EDTA, 5 mg/ml LEADseeker beads (GE Healthcare) in PBS (10 ul). Beads are allowed to settle overnight, and samples are imaged on Viewlux (PerkinElmer).
(§2) The data for compound concentration responses were plotted as % Inhibition, calculated with the data reduction formula 100*(1−[(U1−C2)/(C1−C2)]), versus concentration of compound, where
(§3) Data were fitted to the curve described by:
TR-FRET Kinase Assay of Purified hPDK1:
Assays are performed in 384-well microtiter plates (Greiner, Catalog No. 784076).
As previously described for the Scintillation Proximity protocol, hPDK1 is pre-incubated (30 minutes at room temperature) with compounds before initiating phosphorylation of AKT1 by addition of substrate to the hPDK1 and compound mix. Reactions are stopped after 4-6 hours at room temperature by the addition to final concentrations of 0.02 M EDTA, 0.0875 μM Streptavidin APC (PerkinElmer), 0.03 μM AKT1 (phospho T308) antibody (Abcam Inc.), 0.00375 μM Lance Eu-labeled anti rabbit IgG Antibody (PerkinElmer). Antibody binding reaches equilibrium in 30 minutes before signal is read on an EnVision™ 2103 Multilabel Reader (PerkinElmer). APC Signals are normalized to Europium signal. Data processing is the same as described for the Scintillation Proximity assay with the exception of the generation of the “C2” control by addition of buffer without hPDK1 to control wells at t=0 instead of EDTA.
(§4) Scintillation Proximity (LEADseeker) Kinase Assay of Purified hPDK1 using Biotinylated-PDKtide Peptide:
(§5) Assays are performed in 384-well microtiter plates (Greiner, Catalog No. 784075). The reaction volume (10 μl) contains, in final concentrations, 25 mM MOPS (pH 7.5), 10 mM MgCl2, 50 mM KCl, 0.1 mg/ml BSA, 1 μM ATP, 3 uCi/ml ^33PγATP, 5 mM DTT, 0.5 mM CHAPS, 1 μM biotinylated-PDKtide peptide, and 0.5 nM hPDK1.
Compounds, titrated in DMSO, are evaluated at eleven concentrations ranging from 25 μM to 0.4 pM. […] Reactions are stopped after 4 hours at room temperature by the addition of 50 mM EDTA, 5 mg/ml LEADseeker beads (GE Healthcare) in PBS (10 ul).
A general note: SPA uses beads or plates that emit light when radiolabelled molecules are held near them.

Assay [2] has as its target T1, full length PDK1. Description: Scintillation Proximity (LEADseeker) kinase assay of purified hPDK1 using biotinylated-PDKtide peptide. In kind it is biochemical. Particulars: in at least one experimental run; PDKtide substrate; read-out: IC50 against full length PDK1 using the PDKtide substrate assay. As to the method: as §1
The 39 amino acid biotinylated-PDKtide peptide Seq. ID No. 1: (Biotin-Ahx-[…]) was custom synthesized by 21st Century Biochemicals. The peptide was >95% pure and dissolved in HPLC grade water to give a final concentration of 1.1 mM. The concentration was confirmed by quantitative amino acid analysis.
as §4, §5
Compounds, titrated in DMSO, are evaluated at eleven concentrations ranging from 25 μM to 0.4 pM. […] No effect on activity relative to controls without DMSO is observed for hPDK1 at these DMSO amounts. hPDK1 is pre-incubated, 30 minutes at room temperature, with compounds before initiating phosphorylation of biotinylated-PDKtide peptide by addition of substrate to hPDK1/compound. Reactions are stopped after 4 hours at room temperature by the addition of 50 mM EDTA, 5 mg/ml LEADseeker beads (GE Healthcare) in PBS (10 ul). Beads are allowed to settle overnight, and samples are imaged on Viewlux (PerkinElmer).
as §2, §3
The results for each compound were recorded as pIC50 calculated as follows: […]

Assay [3] has as its system AKT phosphorylation at T308 in PC-3 cells. Briefly: Phospho-AKT (T308) ELISA in PC3 cells. The assay is classed as cell-based. Particulars: Homo sapiens, 6 hours compound treatment, in at least one experimental run, read-out: IC50 for inhibition of AKT phosphorylation at T308 in PC-3 cells. As to the method: Phospho-AKT (S473, T308, Total AKT) and phospho-RSK ELISA
PC3 cells (ATCC, Manassas, Va.) were plated in 96-well flat bottom plates (Corning, Lowell, Mass.) at a density of 15,000 cells/well in RPMI 1640 medium supplemented with 10% FBS. Cells were incubated at 37° C., 5% CO2 for 18-20 h. Compounds (dissolved in 100% DMSO) were diluted in an 11-point 3-fold dilution in DMSO. Compound dilution stocks were further diluted in RPMI 1640 with 10% FBS and added to each cell well. DMSO without compound was used in control wells. Final concentration of DMSO in each well was 0.15%. After 6 hours at 37° C. cells were washed with cold PBS (without calcium or magnesium) and lysed in lysis buffer (Meso Scale Discovery, Gaithersburg, Md.) supplemented with 1 protease inhibitor tablet/10 ml (Roche, Indianapolis, Ind.), 10 mM NaF, and 200 μl/10 ml Sigma phosphatase inhibitor 1 & 2 (Sigma Aldrich, St Louis, Mo.) for 30 min at 4° C. All washes were performed on a Bio Tek ELx405 plate washer (Bio Tek Instruments, Winooski, Vt.).
ELISA plates (Meso Scale Discovery; AKT Duplex, cat. N41100B-1; phospho AKT, cat. N411CAB-1; RSK, cat. N41ZB-1) were prepared by the addition of blocking buffer (3% Blocker A diluted in wash buffer (Meso Scale Discovery) for AKT duplex assay and phospho AKT assays; 5% Blocker A/1% Blocker B in Tris-buffered saline for RSK) for 1 hour and washed with wash buffer. Lysates were transferred to assay wells and incubated overnight at 4° C. Following washing with wash buffer, detection buffer (1% Blocker A in wash buffer for AKT duplex and phospho AKT or 1% Blocker A in TBS for RSK) with appropriate antibodies was added. Detection of AKT duplex and phospho AKT was carried out using a sulfo-tagged detection antibodies (Meso Scale Discovery). Detection of phospho-RSK was carried out sequentially with anti phospho-RSK1 (S221)/RSK2 (S227) (R&D systems, Minneapolis, Minn., cat. AF892) and goat anti-rabbit sulfo-tag antibody (cat R32AB-1; Meso Scale Discovery). Plates were incubated for 1 hour at room temperature and washed with wash buffer. Plates were read on a SECTOR™ Imager 6000 (Meso Scale Discovery) using Workbench software (Meso Scale Discovery) following addition of read buffer (Meso Scale Discovery) to each well. For analysis, phospho-AKT (S473) signals were normalized to total AKT, while phospho-AKT (T308) and phospho-RSK signals were analyzed without normalization. All values were expressed as percent of the DMSO-treated controls. IC50s were determined from inhibition curves using XLfit4 software (IDBS, Guildford, UK).
In general terms: ELISA stands for enzyme-linked immunosorbent assay.

In the case of `Nc1nc(NC2(Cc3ccccc3)CC2)cc(-c2ccc3c(N)n[nH]c3c2)n1` [Example 61, 6-(3-Amino-1H-indazol-6-yl)-N^4-[1-(phenylmethyl)cyclopropyl]-2,4-pyrimidinediamine], the IC50 in assay [1] is under 100 nM; in assay [2], 10 nM.
`CC[C@@H]1CO[C@H](C(=O)NC2CCCCC2)CN1c1cc(-c2ccc3c(N)n[nH]c3c2)nc(N)n1` [Example 173, (2S,5R)-4-[2-Amino-6-(3-amino-1H-indazol-6-yl)-4-pyrimidinyl]-N-cyclohexyl-5-ethyl-2-morpholinecarboxamide]: the half-inhibitory concentration (IC50) in assay [1] is under 20 nM; in assay [2], 7.9 nM.
For `CC[C@@H]1COCCN1c1cc(-c2ccc3c(N)n[nH]c3c2)nc(NC)n1` [Example 177, 6-[6-[(3R)-3-Ethyl-4-morpholinyl]-2-(methylamino)-4-pyrimidinyl]-1H-indazol-3-amine], the half-maximal inhibitory concentration (IC50) in assay [1] is under 150 nM; in assay [2], 25 nM.
In the case of `COc1cc(-c2cc(N3C[C@H](C)C[C@@H](NC(=O)OC(C)(C)C)C3)nc(N)n2)cc2[nH]nc(N)c12` [Example 214, 1,1-Dimethylethyl((3R,5R)-1-[2-amino-6-[3-amino-4-(methyloxy)-1H-indazol-6-yl]-4-pyrimidinyl]-5-methyl-3-piperidinyl)carbamate], the concentration for half-maximal inhibition (IC50) in assay [1] was under 50 nM; in assay [2], 2 nM.
Turning to `C[C@@H]1C[C@@H](N(C)C(=O)OC(C)(C)C)CN(c2cc(-c3ccc4c(N)n[nH]c4c3)nc(N)n2)C1` [Example 221, 1,1-Dimethylethyl{(3R,5R)-1-[2-amino-6-(3-amino-1H-indazol-6-yl)-4-pyrimidinyl]-5-methyl-3-piperidinyl}methylcarbamate], the values for the half-inhibitory concentration (IC50) in assay [1] and in assay [3] were under 50 nM and under 1000 nM, respectively.
